Experimental findings from patent US8329865B2, “Antimicrobially active peptides” (priority 2001, dated 2012) are described below.

No end group written: not given here.

The subject of experiment [1] is P. aeruginosa ATCC 27853. The experiment is classed as cell-based, Pseudomonas aeruginosa. As for the experimental part: (§1) Antimicrobial assays. Antimicrobial assays were performed using the CFU assay as previously described (Rieg, S. et al. 2005 J. Immunol. 174:8003-8010, Schittek, B. et al. 2001 Nat. Immunol. 2:1133-1137). The antibacterial activity of DCD-derived peptides and LL-37 was tested against the following bacterial strains: Escherichia coli ATCC 25922, methicillin-susceptible Staphylococcus aureus ATCC 25923 (MSSA), methicillin-resistant Staphylococcus aureus (MRSA; clinical isolate), Staphylococcus epidermidis ATCC 12228, and Pseudomonas aeruginosa ATCC 27853. E. coli ML-35p was generously provided by Robert Lehrer (Department of Medicine, Center for Health Sciences, Los Angeles, Calif.) and cultivated on Luria-Bertani (LB) plates containing 50 μg of ampicillin/ml. This strain constitutively expresses cytoplasmic […] but lacks lactose permease (Lehrer, R. I. et al. 1988 J. Immunol. Methods 108:153-158). The bacterial membrane mutants Staphylococcus aureus mprF and dltA and Staphylococcus epidermidis Δica and the corresponding wild-type strains S. aureus 113 and S. epidermidis 1457 were previously described (Gotz, F. 2002 Mol. Microbiol. 43:1367-1378, Peschel, A. et al. 2001 J. Exp. Med. 193:1067-1076). Bacterial cultures were grown to mid-exponential growth phase and washed three times with 10 mM sodium phosphate buffer-10 mM NaCl (pH 7.0). The bacterial concentration was estimated photometrically at 600 nm. Absorbance of 1.0 corresponded to 8.56×10^8/ml for E. coli; 1×10^8/ml for E. coli ML-35p; 1.97×10^8/ml for S. aureus, MRSA, and the wild-type and membrane mutants of S. aureus and S. epidermidis; and 5.07×10^8/ml for P. aeruginosa.
(§2) After dilution to a concentration of 10^6 CFU/ml, 10-μl portions of the dilutions were incubated at 37° C. for 2 to 4 h with the respective peptide diluted in water in a total volume of 30 μl in 10 mM sodium phosphate buffer-10 mM NaCl (pH 7.0). After incubation, the cells were diluted 1:100 in 10 mM sodium phosphate buffer-10 mM NaCl (pH 7.0), and 90 μl of the diluted bacterial suspension was plated in triplicates on blood agar. Bacterial colonies were counted after incubation for 18 to 24 h at 37° C. The antimicrobial activity was calculated by using [(cell survival after peptide incubation)/(cell survival in buffer without peptide)×100]. The LC90 describes the lethal concentration of the current synthetic peptide in μg/ml or μM that leads to a 90% reduction of CFU compared to the buffer control.
(§3) ^aThe 90% inhibitory concentration (IC90) is the concentration of peptide in μg/ml (or in μM [in parentheses]) able to kill 90% of the microorganisms in 10 mM NaP-10 mM NaCl in a CFU assay compared to the control incubated only in buffer without peptide. ND, not determined.

The subject of experiment [2] is S. aureus (MSSA) ATCC 25923. The experiment is classed as cell-based, Staphylococcus aureus. How it is done: as §1, §2, §3
Experiment [3] concerns S. aureus mprF. In kind it is cell-based, Staphylococcus aureus. Particulars: 10 mM NaP-10 mM NaCl, CFU assay. How it is done:
as §1, §2, §3

Experiment [4] concerns S. aureus dltA. The experiment is classed as cell-based, Staphylococcus aureus. The settings on record: 10 mM NaP-10 mM NaCl, CFU assay. As for the experimental part:
as §1, §2, §3

In experiment [5] the test system is E. coli ML-35p. In kind it is cell-based, Escherichia coli. The settings on record: 10 mM NaP-10 mM NaCl, CFU assay. How it is done:
as §1, §2, §3

The subject of experiment [6] is E. coli ATCC 25922. The experiment is classed as cell-based, Escherichia coli. How it is done:
as §1, §2, §3

In experiment [7] the test system is S. epidermidis ATCC 12228. The experiment is classed as cell-based, Staphylococcus epidermidis. As for the experimental part:
as §1, §2, §3

In experiment [8] the test system is S. epidermidis Δica. The experiment is classed as cell-based, Staphylococcus epidermidis. The settings on record: 10 mM NaP-10 mM NaCl, CFU assay. As for the experimental part:
as §1, §2, §3

Experiment [9] relates to S. aureus (ATCC 25923). Briefly: TEM and IEM of peptide-treated bacteria. In kind it is cell-based, Staphylococcus aureus. How it is done:
FIG. 10. Morphology of peptide-treated S. aureus. […] As a negative control cells were incubated in buffer without peptide. For the immune-EM, bacteria were incubated with a polyclonal antiserum to DCD-1, and the reactivity was detected by immunogold labeling. Seen is the binding of DCD to the bacterial surface.
TEM and IEM. Liquid cultures of S. aureus (ATCC 25923) cells grown up to mid-logarithmic phase were washed twice in 10 mM sodium phosphate buffer (pH 7.4). […] In parallel, antimicrobial assays with both peptides were performed which confirmed the antibacterial activity of both peptides. For immune electron microscopy (IEM), cells were fixed in PLP and centrifuged, and the resulting bacterial pellet was embedded in 3.5% agarose at 37° C. and cooled on ice. Small parts of agarose blocks were embedded in Lowicryl (Polysciences, Eppelheim, Germany). Ultrathin sections (50 nm) were mounted on Formvar-coated nickel grids and incubated with rabbit anti-DCD, followed by 10-nm gold-conjugated goat anti-rabbit immunoglobulin G (Auroprobe EM; Amersham, Freiburg, Germany). In control samples the primary antibody was omitted. Samples were examined by using a Zeiss 109 transmission electron microscope (Zeiss, Oberkochen, Germany). For transmission EM (TEM) bacterial pellets were fixed in Karnovsky's fixative, postfixed in 1% osmium tetroxide, and embedded in Epon.

Experiment [10] concerns Escherichia coli, Staphylococcus aureus, Enterococcus faecalis and Candida albicans. Briefly: CFU test (colony-forming units), Example 4. The experiment is classed as cell-based. Particulars: sodium phosphate buffer, 37° C., 3 h, 4 h or overnight. As for the experimental part:
The antimicrobial effect of said peptides was carried out by a CFU test (test for colony-forming units) as described for the defensins by Valore et al., “Human Beta-Defensin-1: An Antimicrobial Peptide of Urogenital Tissues”, J Clin Invest 101, 1633-1642 (1998).
The test of the novel peptides was carried out with Escherichia coli, Staphylococcus aureus, Enterococcus faecalis and Candida albicans. E. coli was incubated in LB medium, E. faecalis and S. aureus in Columbia medium (Difko, BD Heidelberg) and C. albicans in casein hydrolysate medium (Merck, Darmstadt). The amounts of bacteria and yeasts were determined by photometry. The bacterial strains were incubated to an optical density of […] at 600 nm and the yeast was incubated to an optical density of 0.4-0.6 at 450 nm. The amount of the organisms was determined by plating various dilutions as follows: an OD of 1 at 600 nm is equivalent to 8.2×10^9/ml for E. coli, 1.9×10^10/ml for S. aureus and 9.0×10^9/ml for E. faecalis, and an OD of 1 at […] is equivalent to 1.4×10^8/ml for C. albicans.
The cells were washed twice with 10 mM sodium phosphate buffer (pH 7.4) and diluted to 2-3×10^7 cells/ml (E. coli, E. faecalis), 5.7×10^7 cells/ml (S. aureus) or 5×10^5 cells/ml (C. albicans) in phosphate buffer.
The cells were incubated with various amounts of the peptides in 200 μl of sodium phosphate buffer at 37° C. for 3 h, 4 h or overnight (21-24 h). The cells were diluted 1:10 to 1:100 for the bacteria and 1:500 to 1:5000 for the yeast, and 50 μl, 100 μl and 200 μl were plated on appropriate agar plates. The plates were incubated at 37° C. overnight, and the number of colonies was counted. The antimicrobial effect of the peptides has been stated as percentage of killed cells: [1−(cell survival after incubation with the peptide)/(cell survival after control incubation)]×100.

For the molecule “LEKGLDGAKKAVGGLGKLGKDAVEDLESVGKGAVHDVKDVLDSVL [LEK-45]”, the IC90 in experiment [1] is >200 (>44) μg/ml; in experiment [2], >200 (>44) μg/ml; in [3] it was over 200 µg/mL; in experiment [4], over 200 µg/mL; in experiment [5] it was over 200 µg/mL; in [6] it was >200 (>44) μg/ml. The IC90 in experiment [7] was 200 (44) μg/ml; in experiment [8], over 200 µg/mL.

Turning to “SSLLEKGLDGAKKAVGGLGKLGKDAVEDLESVGKGAVHDVKDVLDSV (synthetic fragment of DCD protein) [DCD-1]”, the “morphological changes of S. aureus (transmission EM)” value in [9] (100 μg/ml for 4 h) is recorded as “no signs of cell wall damage. Instead, we observed cellular disintegration”. In experiment [9] (antiserum to DCD-1, immunogold labeling), the “localisation of peptide on bacteria (immune-EM)” value is “able to bind to the cell surface but is not found in the bacterial cytoplasm”. Also, in experiment [10], the “antimicrobial effect (percentage of killed cells)” value is “quantity-dependent antimicrobial effect”.

In the case of SSLLEKGLDGAKKAVGGLGKLGK [SSL-23], the IC90 in experiment [1] is over 200 µg/mL; in experiment [2] it was 10 µg/mL; in experiment [3] it was 50 µg/mL; in experiment [4] it was 10 µg/mL; in experiment [6], 10 µg/mL; in experiment [7], 8 µg/mL. The molecule also gave an IC90 in experiment [8] of over 200 µg/mL.

For “YDPEAASAPGSGNPCHEASAAQKENAGEDP [Y-P30, survival promoting peptide Y-P30 with one amino acid replaced, reference compound]”, the “antimicrobial effect (percentage of killed cells)” value in experiment [10] was “no appreciable antimicrobial effect”.

Take “SSLLEKGLDGAKKAVGGLGKLGKDAVEDLESVGKGAVHDVKDVLDSVL [DCD-1L]”: the IC90 is over 200 µg/mL in [1]; 45 µg/mL in experiment [2]; 50 µg/mL in experiment [3]; 6 µg/mL in [4]; 30 µg/mL in experiment [5]; 45 µg/mL in experiment [6]. For the same molecule, the IC90 in experiment [7] was 10 µg/mL; in experiment [8] it was over 200 µg/mL.

With SSLLEKGLDGAKKAVGGLGKLGKDAVEDL [SSL-29], the IC90 in [1] is >200 (>69) μg/ml; in experiment [2] it was >200 (>69) μg/ml; in [3], 180 µg/mL; in [5], over 200 µg/mL; in experiment [6], >200 (>69) μg/ml; in [7], 200 (69) μg/ml.

Regarding SSLLEKGLDGAKKAVGGLGKLGKDA [SSL-25], the IC90 in experiment [1] is 200 µg/mL; in experiment [2] it was 48 µg/mL; in experiment [3], over 200 µg/mL; in experiment [4], over 200 µg/mL; in [5], 9 µg/mL; in [6] it was 10 µg/mL. The same molecule had an IC90 in experiment [7] of over 200 µg/mL.

B1: DCD protein: DCD protein comprising the sequence SEQ ID No: 1, 110 amino acid residues (protein, listed as Homo sapiens)
chain: MRFMTLLFLTALAGALVCAYDPEAASAPGSGNPCHEASAAQKENAGEDPGLARQAPKPRKQRSSLLEKGLDGAKKAVGGLGKLGKDAVEDLESVGKGAVHDVKDVLDSVL
In the case of B1, in [10], the “antimicrobial effect (percentage of killed cells)” value is listed as “toxic”.
